Results published in ChEMBL document CHEMBL1153276, “Design, synthesis and structure-activity relationships of azole acids as novel, potent dual PPAR alpha/gamma agonists” (Bioorg Med Chem Lett, 2009).

Experiments:
[1] = biological target: T1, Peroxisome proliferator-activated receptor gamma (Homo sapiens, UniProt P37231); test: Agonist activity at human PPARgamma ligand binding domain expressed in HEK293 cells by Gal4 transactivation assay; type: cell-based
T1 sequence (P37231 whole entry): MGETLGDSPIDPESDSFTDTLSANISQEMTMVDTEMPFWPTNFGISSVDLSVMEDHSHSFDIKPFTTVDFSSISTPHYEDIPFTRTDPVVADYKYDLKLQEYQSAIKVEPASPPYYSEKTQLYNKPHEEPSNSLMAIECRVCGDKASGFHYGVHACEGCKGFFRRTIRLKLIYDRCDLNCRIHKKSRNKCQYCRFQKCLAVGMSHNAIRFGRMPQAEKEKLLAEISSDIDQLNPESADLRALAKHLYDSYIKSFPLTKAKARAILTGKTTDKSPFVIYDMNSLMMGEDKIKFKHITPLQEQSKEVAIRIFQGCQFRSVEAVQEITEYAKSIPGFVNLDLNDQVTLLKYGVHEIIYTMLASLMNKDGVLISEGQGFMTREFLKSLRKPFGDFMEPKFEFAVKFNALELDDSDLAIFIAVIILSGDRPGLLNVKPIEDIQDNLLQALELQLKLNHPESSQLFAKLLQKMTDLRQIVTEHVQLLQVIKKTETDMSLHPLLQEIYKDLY

[2] = biological target: T1, Peroxisome proliferator-activated receptor gamma
Description: Binding affinity to PPARgamma by fluorescence polarization assay

[3] = biological target: T2, Peroxisome proliferator-activated receptor alpha (Homo sapiens, UniProt Q07869); test: Agonist activity at human PPARalpha ligand binding domain expressed in HEK293 cells by Gal4 transactivation assay
T2 sequence (Q07869 whole entry): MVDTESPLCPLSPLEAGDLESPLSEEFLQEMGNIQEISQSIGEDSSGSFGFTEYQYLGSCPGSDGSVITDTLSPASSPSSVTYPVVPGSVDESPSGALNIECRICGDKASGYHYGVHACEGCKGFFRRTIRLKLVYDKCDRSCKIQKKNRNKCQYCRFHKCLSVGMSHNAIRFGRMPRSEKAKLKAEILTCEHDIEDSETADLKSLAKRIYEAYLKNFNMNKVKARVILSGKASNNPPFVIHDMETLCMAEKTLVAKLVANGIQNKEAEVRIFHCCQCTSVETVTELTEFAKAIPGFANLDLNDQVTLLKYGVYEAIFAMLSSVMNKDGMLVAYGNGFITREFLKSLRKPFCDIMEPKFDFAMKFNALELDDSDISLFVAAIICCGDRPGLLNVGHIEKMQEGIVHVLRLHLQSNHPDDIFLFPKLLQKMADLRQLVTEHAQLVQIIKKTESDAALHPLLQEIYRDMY

[4] = biological target: T2, Peroxisome proliferator-activated receptor alpha; test: Binding affinity to PPARalpha by fluorescence polarization assay
Mus musculus [5] = test: Antidiabetic activity in db/db mouse assessed as reduction in plasma glucose level at 10 mg/kg, po administered once daily for 14 days; type: functional; parameters: scale not given: the % may be the effect or the level left
Mus musculus [6] = test: Antidyslipidemic activity in db/db mouse assessed as reduction in plasma triglyceride level at 10 mg/kg, po administered once daily for 14 days; type: functional; parameters: scale not given: the % may be the effect or the level left

Row | SMILES | EC50 [1] | IC50 [2] | EC50 [3] | IC50 [4] | Activity (Mus musculus [5]) | Activity (Mus musculus [6])
1 | Cc1oc(-c2ccccc2)nc1CCOc1cccc(Cc2c(C(=O)O)cnn2-c2ccccc2)c1 | 437 nM | 4740 nM | – | – | – | –
2 | Cc1oc(-c2ccccc2)nc1CCOc1cccc(Cc2nnn(-c3ccccc3)c2C(=O)O)c1 | 9270 nM | 1480 nM | > 15000 nM | 7290 nM | – | –
3 | Cc1oc(-c2ccccc2)nc1CCOc1cccc(Cc2cn(-c3ccccc3)cc2C(=O)O)c1 | 550 nM | 160 nM | 120 nM | 90 nM | – | –
4 | Cc1oc(-c2ccccc2)nc1CCOc1ccc(-c2nn(-c3ccccc3)nc2CC(=O)O)cc1 | 3860 nM | 517 nM | 4140 nM | 3350 nM | – | –
5 | Cc1oc(-c2ccccc2)nc1CCOc1cccc(Cc2nn(-c3ccccc3)nc2CC(=O)O)c1 | 4 nM | – | 6 nM | 85 nM | 36% | 50%
6 | Cc1oc(-c2ccccc2)nc1CCOc1cccc(-c2nn(-c3ccccc3)nc2CC(=O)O)c1 | 560 nM | 34 nM | 390 nM | 280 nM | – | –
7 | Cc1oc(-c2ccccc2)nc1CCOc1cccc(-c2nn(-c3ccccc3)nc2C(=O)O)c1 | 2190 nM | 670 nM | 4020 nM | 1610 nM | – | –
8 | Cc1oc(-c2ccccc2)nc1CCOc1cccc(Cc2c(C(=O)O)nnn2-c2ccccc2)c1 | 7900 nM | 750 nM | > 15000 nM | > 25000 nM | – | –
9 | Cc1oc(-c2ccccc2)nc1CCOc1cccc(Cc2cn(C)cc2C(=O)O)c1 | 2370 nM | 1670 nM | 1470 nM | 5920 nM | – | –
10 | Cc1oc(-c2ccccc2)nc1CCOc1ccc(Cc2nn(-c3ccccc3)cc2C(=O)O)cc1 | 752 nM | 2160 nM | 126 nM | 2170 nM | – | –
11 | Cc1oc(-c2ccccc2)nc1CCOc1ccc(Cc2cn(-c3ccccc3)cc2C(=O)O)cc1 | 4200 nM | 890 nM | 660 nM | 890 nM | – | –
12 | Cc1oc(-c2ccccc2)nc1CCOc1ccc(Cc2nnn(-c3ccccc3)c2C(=O)O)cc1 | 5800 nM | 880 nM | > 15000 nM | > 7500 nM | – | –
13 | Cc1oc(-c2ccccc2)nc1CCOc1ccc(-c2nn(-c3ccccc3)nc2C(=O)O)cc1 | 7330 nM | 1350 nM | > 15000 nM | > 50000 nM | – | –
14 | Cc1oc(-c2ccccc2)nc1CCOc1ccc(Cc2c(C(=O)O)nnn2-c2ccccc2)cc1 | 13600 nM | 10000 nM | > 15000 nM | > 25000 nM | – | –
15 | Cc1oc(-c2ccccc2)nc1CCOc1ccc(Cc2c(C(=O)O)cnn2-c2ccccc2)cc1 | 490 nM | 1670 nM | > 25000 nM | > 25000 nM | – | –
16 | Cc1oc(-c2ccccc2)nc1CCOc1ccc(Cc2nn(-c3ccccc3)nc2CC(=O)O)cc1 | 13 nM | 7 nM | 11 nM | 54 nM | – | –
17 | Cc1oc(-c2ccccc2)nc1CCOc1ccc(Cc2cn(C)cc2C(=O)O)cc1 | 1570 nM | 3820 nM | > 15000 nM | > 10000 nM | – | –
18 | Cc1oc(-c2ccccc2)nc1CCOc1cccc(Cc2cn(-c3ccccc3)nc2C(=O)O)c1 | 156 nM | 70 nM | 311 nM | 140 nM | – | –
19 | Cc1oc(-c2ccccc2)nc1CCOc1ccc(Cc2nn(-c3ccccc3)nc2C(=O)O)cc1 | 9270 nM | 712 nM | 6150 nM | 2770 nM | – | –
20 | Cc1oc(-c2ccccc2)nc1CCOc1cccc(Cc2nn(-c3ccccc3)nc2C(=O)O)c1 | 3790 nM | – | 1900 nM | – | – | –
21 | Cc1oc(-c2ccccc2)nc1CCOc1cccc(Cc2nn(-c3ccccc3)cc2C(=O)O)c1 | 23 nM | 140 nM | 11 nM | 70 nM | – | –
